Test results: ChEMBL document CHEMBL4706617, “Pyrimido[1,2-b]indazole derivatives: Selective inhibitors of human monoamine oxidase B with neuroprotective activity” (Eur J Med Chem, 2021)
Activity calls are given as the source filed them. No cut-off for these calls is given here.

Key:
[1] = biological target: T1, Amine oxidase [flavin-containing] A (Homo sapiens, UniProt P21397); assay: Inhibition of recombinant human MAO-A expressed in baculovirus infected BTI-TN-5B1-4 insect cells using p-tyramine as substrate preincubated for 15 mins followed by substrate addition and measured over 20 mins by horse-radish peroxidase/Amplex Red coupled fluorimetric analysis
T1 sequence (P21397 whole entry): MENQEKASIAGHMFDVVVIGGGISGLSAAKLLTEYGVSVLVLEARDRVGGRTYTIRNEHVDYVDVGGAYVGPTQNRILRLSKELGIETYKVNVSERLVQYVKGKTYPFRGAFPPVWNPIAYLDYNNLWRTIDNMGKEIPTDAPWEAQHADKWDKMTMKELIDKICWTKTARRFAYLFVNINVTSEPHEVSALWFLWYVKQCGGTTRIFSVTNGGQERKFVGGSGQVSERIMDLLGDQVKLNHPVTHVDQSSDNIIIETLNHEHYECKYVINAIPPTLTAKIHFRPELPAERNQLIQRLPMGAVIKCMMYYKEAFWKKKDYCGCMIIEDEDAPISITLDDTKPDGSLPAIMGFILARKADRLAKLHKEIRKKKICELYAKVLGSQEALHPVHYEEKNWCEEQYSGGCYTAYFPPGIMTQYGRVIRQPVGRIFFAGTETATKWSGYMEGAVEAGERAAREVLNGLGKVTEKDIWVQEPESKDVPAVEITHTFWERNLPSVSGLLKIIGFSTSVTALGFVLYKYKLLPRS

[2] = biological target: T2, Amine oxidase [flavin-containing] B (Homo sapiens, UniProt P27338); assay: biochemical; assay type: cell-based, BTI-TN-5B1-4
T2 sequence (P27338 whole entry): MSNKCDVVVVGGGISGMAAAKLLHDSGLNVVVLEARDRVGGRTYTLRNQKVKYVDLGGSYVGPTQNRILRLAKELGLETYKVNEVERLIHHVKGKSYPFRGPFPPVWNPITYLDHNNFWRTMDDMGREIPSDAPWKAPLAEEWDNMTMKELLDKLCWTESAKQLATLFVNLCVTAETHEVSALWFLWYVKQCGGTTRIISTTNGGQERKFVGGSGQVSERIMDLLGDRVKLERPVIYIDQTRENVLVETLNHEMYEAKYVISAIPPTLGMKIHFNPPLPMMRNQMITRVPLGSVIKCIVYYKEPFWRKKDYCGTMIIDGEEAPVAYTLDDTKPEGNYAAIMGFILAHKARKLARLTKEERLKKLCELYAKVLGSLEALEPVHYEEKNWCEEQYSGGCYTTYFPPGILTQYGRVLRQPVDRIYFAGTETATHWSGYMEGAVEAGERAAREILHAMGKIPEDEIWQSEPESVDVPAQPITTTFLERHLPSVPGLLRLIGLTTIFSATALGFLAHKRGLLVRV
Description: Inhibition of recombinant human MAO-B expressed in baculovirus infected BTI-TN-5B1-4 insect cells using p-tyramine as substrate preincubated for 15 mins followed by substrate addition and measured over 20 mins by horse-radish peroxidase/Amplex Red coupled fluorimetric analysis

SH-SY5Y [3] = assay: Cytotoxicity against human SH-SY5Y cells assessed as reduction in metabolic activity up to 20 uM incubated for 24 hrs by MTS assay; assay type: ADME, cell-based
SH-SY5Y [4] = assay: Cytotoxicity against human SH-SY5Y cells assessed as reduction in metabolic activity at 50 to 100 uM incubated for 24 hrs by MTS assay; assay type: ADME, cell-based; conditions: dose 50-100 µM
SH-SY5Y [5] = assay: Neuroprotective activity against 6-OHDA-induced cell death in human SH-SY5Y cells at 1 uM preincubated for 1 hr followed by 6-OHDA stimulation for 24 hrs by 7AAD staining based flow cytometric analysis; assay type: functional; conditions: time 25.0 hrs
[6] = Cytotoxicity against human SH-SY5Y cells assessed as metabolic activity up to 100 uM incubated for 24 hrs by MTS assay relative to control; assay type: ADME, cell-based; conditions: read-out: Activity
[7] = biological target: T2, Amine oxidase [flavin-containing] B; assay: Competitive inhibition of recombinant human MAO-B expressed in baculovirus infected BTI-TN-5B1-4 insect cells using varying level of p-tyramine as substrate by Lineweaver-Burk plot analysis

Compound | IC50 [1] | IC50 [2] | Activity (SH-SY5Y [3]) | Activity (SH-SY5Y [4]) | Activity (SH-SY5Y [5]) | viability at 24 h [6] | Ki [7]
FC(F)(F)c1ccc2c(c1)nn1cc(Br)cnc21 | > 100 µM | 1.17 µM | – | – | – | – | –
c1csc(-c2cnc3c4cccnc4nn3c2)c1 | > 100 µM | 4.48 µM | – | – | – | – | –
O=[N+]([O-])c1ccc2nn3cc(Br)cnc3c2c1 | > 100 µM | > 100 µM | – | – | – | – | –
c1ccc(-c2cnc3c4ncccc4nn3c2)cc1 | > 100 µM | 88.3 µM | – | – | – | – | –
Brc1ccc2c(c1)nn1cc(Br)cnc21 | > 100 µM | > 100 µM | – | – | – | – | –
COc1ccc2c3c([nH]c2c1)C(C)=NCC3 [HARMALINE] | 0.0329 µM | > 100 µM | – | – | – | – | –
COc1ccc(-c2cnc3c4ccccc4nn3c2)cc1 | > 100 µM | 0.215 µM | Non-Toxic | Toxic | – | – | –
Brc1cnc2c3nccnc3nn2c1 | > 100 µM | > 100 µM | – | – | – | – | –
COc1ccc(-c2cnc3c4c(Cl)cccc4nn3c2)cc1 | > 100 µM | 0.132 µM | – | Toxic | – | – | –
CC(=O)c1ccc(-c2cnc3c4cccnc4nn3c2)cc1 | > 100 µM | 0.13 µM | Non-Toxic | – | Active | > 85% | 0.0765 µM
Fc1cccc2nn3cc(Br)cnc3c12 | > 100 µM | > 100 µM | – | – | – | – | –
COc1cccc(-c2cnc3c4cccnc4nn3c2)c1 | > 100 µM | 0.397 µM | – | – | – | – | –
COc1ccccc1-c1cnc2c3cccnc3nn2c1 | > 100 µM | 3.79 µM | – | – | – | – | –
Brc1ccc2nn3cc(Br)cnc3c2c1 | > 100 µM | > 100 µM | – | – | – | – | –
Fc1ncccc1-c1cnc2c3ccccc3nn2c1 | 21.1 µM | 0.648 µM | – | – | – | – | –
CCOC(=O)c1ccc(-c2cnc3c4cccnc4nn3c2)cc1 | > 100 µM | 0.822 µM | – | – | – | – | –

Compound | IC50 [1] | IC50 [2] | Activity (SH-SY5Y [3]) | Activity (SH-SY5Y [4]) | Activity (SH-SY5Y [5]) | viability at 24 h [6] | Ki [7]
Brc1cnc2c3ncccc3nn2c1 | > 100 µM | > 100 µM | – | – | – | – | –
C(=C\c1cnc2c3cccnc3nn2c1)/c1ccccc1 | > 100 µM | 0.837 µM | – | – | – | – | –
Clc1cccc2nn3cc(Br)cnc3c12 | > 100 µM | > 100 µM | – | – | – | – | –
c1cnc2c(c1)nn1cc(-c3ccsc3)cnc21 | > 100 µM | 14.8 µM | – | – | – | – | –
COc1ccc(-c2cnc3c4cccnc4nn3c2)cc1 | > 100 µM | 0.818 µM | – | – | – | – | –
Brc1cnc2c3cccnc3nn2c1 | > 100 µM | > 100 µM | – | – | – | – | –
Fc1ccc(-c2cnc3c4cccnc4nn3c2)cn1 | > 100 µM | > 100 µM | – | – | – | – | –
FC(F)(F)c1cccc(-c2cnc3c4cccnc4nn3c2)c1 | > 100 µM | 1.02 µM | – | – | – | – | –
COc1ccc(-c2cnc3c4c(F)cccc4nn3c2)cc1 | > 100 µM | 0.062 µM | – | – | – | > 85% | 0.0337 µM
CS(=O)(=O)c1ccc(-c2cnc3c4cccnc4nn3c2)cc1 | > 100 µM | 5.7 µM | – | – | – | – | –
CCOC(=O)c1ccccc1-c1cnc2c3nccnc3nn2c1 | > 100 µM | > 100 µM | – | – | – | – | –
CSc1ccc(-c2cnc3c4ccccc4nn3c2)cc1 | > 100 µM | 0.065 µM | Non-Toxic | – | – | > 85% | 0.0247 µM
COc1ccc(-c2cnc3c4nccnc4nn3c2)cc1 | > 100 µM | 1.25 µM | – | – | – | – | –
COc1ccc(-c2cnc3c4ncccc4nn3c2)cc1 | > 100 µM | 0.236 µM | Non-Toxic | Toxic | Active | – | 0.107 µM
Brc1cnc2c3ccccc3nn2c1 | > 100 µM | > 100 µM | – | – | – | – | –
